Source: US9259350B2, “Ophthalmic devices for delivery of beneficial agents” (CooperVision International Holding Company, LP, priority 2012, dated 2016)

Legend:
[1] = PSS uptake by hydrated and non-hydrated Proclear lenses; assay type: physicochemical
[2] = Drug uptake by dry vs wet (hydrated) Proclear lenses after autoclave; assay type: physicochemical; details: for % Δ Dry vs Wet (drug uptake): Proclear lens; for Drug Uptake, Wet Lens: hydrated Proclear lens; for Drug Uptake, Wet Lens / Drug Uptake, Dry Lens: autoclaved, n=3; for Drug Uptake, Dry Lens: non-hydrated Proclear lens
Procedure: The ability of hydrated and non-hydrated (dry) Proclear lenses to take up olopatadine, ketotifen, and cromolyn was evaluated. At physiological pH, olopatadine is zwitterionic, ketotifen is positively charged, and cromolyn is negatively charged. […] The dry lenses were removed from their original molds, packaged with 3 ml of each drug solution without any intermediate hydration step and autoclaved. For controls, each drug solution was packaged without a lens and autoclaved. After autoclave, the amount of drug in each packaging solution was measured by HPLC.

Serratia marcescens = test: Antimicrobial activity of εPLL-packaged Proclear lenses; assay type: cell-based
Procedure: (§1) For example, hydrated Proclear contact lenses were packaged and autoclaved in PBS having an ionic strength of about 0.2 and comprising 500 ppm εPLL, an antimicrobial peptide. These lenses took up an average of 5 μg of the εPLL/lens. […] Thus, in various examples, the packaging solution has an ionic strength of less than about 0.15, 0.10, or 0.05 as calculated by the equation: […]

[3] = εPLL uptake by non-hydrated Proclear lenses in different buffers; assay type: physicochemical; details: dry Proclear lens, autoclaved, n=3
Procedure: The uptake and release of εPLL from non-hydrated (i.e. dry) Proclear lenses was evaluated. The εPLL (Chisso Corporation, Tokyo, Japan) was prepared at a concentration of 500 ppm in three different buffers, PBS, TRIS buffered saline (0.023% tris(hydroxymethyl)methylamine, 0.544% trizma hydrochloride, 0.819% NaCl; TBS), or Tris-sorbitol. Lenses were individually packaged, in triplicate, in 1.2 ml of each εPLL preparation and autoclaved. Additionally, vials containing 1.2 ml 500 ppm εPLL in each buffer with no lens (control vials) were also autoclaved. The amounts of εPLL present in the post-autoclave solution of the test lens vials and in the control vial were determined by cationic size exclusion chromatography using a sample injection volume of 5 μl, a Water Acquity UPLC BEH 125 SEC 1.7 μm 4.6×150 mm at room temperature, and a flow rate of 0.4 ml/min using 90% 0.2M NaCl/0.1% TFA in H20: 10% ACN isocratically. The average of the amount of εPLL taken up by each test lens (n=3) was calculated by subtracting the amount of εPLL present in the post-autoclave solution of the test lens vial from the amount of εPLL present in the control vial. Lenses packaged with 500 ppm εPLL in PBS took up an average of 88 μg εPLL. Lenses packaged with 500 ppm εPLL in TBS took up 47 μg εPLL, and lenses packaged with 500 ppm εPLL in Tris-sorbitol took up 208 μg εPLL.

[4] = εPLL uptake by hydrated Proclear lenses, packaging solutions of different ionic strength; assay type: physicochemical
Procedure: as §1

[5] = high concentration: 250 μg/ml ketotifen, 1000 μg/ml olopatadine, 2000 μg/ml cromolyn
[6] = low concentration: 25 μg/ml ketotifen, 200 μg/ml olopatadine, 400 μg/ml cromolyn
[7] = high concentration: 250 μg/ml ketotifen (borate buffer), 1000 μg/ml olopatadine (PBS), 2000 μg/ml cromolyn (PBS)
[8] = low concentration: 25 μg/ml ketotifen (borate buffer), 200 μg/ml olopatadine (PBS), 400 μg/ml cromolyn (PBS)

Row | Molecule | % Δ Dry vs Wet (drug uptake) [2, 5] [%] | % Δ Dry vs Wet (drug uptake) [2, 6] [%] | Drug Uptake, Wet Lens [2, 7] [µg] | Drug Uptake, Wet Lens [2, 8] [µg] | Drug Uptake, Dry Lens [2, 7] [µg] | Drug Uptake, Dry Lens [2, 8] [µg] | other results
1 | C=Cc1ccc(S(=O)(=O)[O-])cc1.[Na+] [compound 206, styrene sulfonate] |  |  |  |  |  |  | uptake by dry lens compared to wet lens ([1]; Proclear lens): significantly more; % Δ Dry vs Wet (uptake) ([1]; Proclear lens, 0.01 mole/liter PSS, 48 hours): 16%; Uptake, Wet Lens ([1]; hydrated Proclear lens, 0.01 mole/liter PSS, 48 hours, n=3): 92 µg; Uptake, Dry Lens ([1]; non-hydrated Proclear lens, 0.01 mole/liter PSS, 48 hours, n=3): 110 µg
2 | CN1CCC(=C2c3ccccc3CC(=O)c3sccc32)CC1 [ketotifen] | −6 | −17 | 122 | 12 | 115 | 10 | 
3 | CN(C)CC/C=C1/c2ccccc2COc2ccc(CC(=O)O)cc21 [olopatadine] | 6 | 16 | 202 | 45 | 215 | 52 | 
4 | epsilon polylysine [εPLL] |  |  |  |  |  |  | antimicrobial activity against Serratia marcescens (Serratia marcescens; Proclear lenses autoclaved in PBS with 500 ppm εPLL): no antimicrobial activity; kill of Serratia marcescens (Serratia marcescens; Proclear lenses autoclaved in TRIS buffer with 2% sorbitol with εPLL): ~4 log; εPLL uptake (average) ([3]; 500 ppm εPLL in PBS): 88 µg; εPLL uptake ([3]; 500 ppm εPLL in TBS): 47 µg; εPLL uptake ([3]; 500 ppm εPLL in Tris-sorbitol): 208 µg; εPLL uptake (average) ([4]; hydrated Proclear lenses autoclaved in PBS, ionic strength about 0.2, 500 ppm εPLL): 5 μg/lens; εPLL uptake (average) ([4]; hydrated Proclear lenses autoclaved in TRIS buffer with 2% sorbitol, ionic strength about 0.02): about 120 μg/lens
